Experimental data reported in patent EP4679096A1, “BIOMARKERS AND METHOD FOR ESTIMATING BRAIN NEURODEGENERATIVE CONDITION” (SHIMADZU CORPORATION, priority 2023, dated 2024).
Peptide text beside a SMILES is read from it.

Assay: Effect of plasma handling (thawed, about 2 hours at room temperature, re-frozen: RT2h-FT1) on NI of Ng peptides
Type: in vitro ADME, human
Conditions: FIG. 1
Experimental: Among the 161 samples, samples obtained by thawing cryopreserved samples, placing the samples at room temperature for about 2 hours, and then re-freezing the samples are also included. In order to investigate the influence of this process on the measured value of the Ng peptide, the Ng peptide to be analyzed was evaluated using a part of the sample. In the measurement of the sample that was thawed, left at room temperature for about 2 hours, and then re-frozen (sample under the RT2h-FT1 condition), the above [purification] [mass spectrometry] was performed except that SIL-Ng50-78 was used as the internal standard peptide, and the internal standard peptide was diluted with the first buffer. The above [purification] [mass spectrometry] was also performed on the samples not subjected to the RT2h-FT1 process (samples under control conditions). For these, data processing was performed using data obtained by simultaneously measuring SIL-Ng50-78 and SIL-Ng45-75 and SIL-Ng24-75 such that the measured value of the RT2h-FT1 condition normalized with SIL-Ng50-78 was NI normalized with SIL-Ng45-75 and SIL-Ng24-75.
From this, it can be seen that the decomposition of the Ng peptide proceeds by the time for which the plasma is stored in a thawed state and/or freeze-thawing. […]

Row | Compound | change of NI under the RT2h-FT1 condition compared with the Control condition (decomposition in plasma)
1 | CC(C)[C@H](NC(=O)CNC(=O)[C@H](C)NC(=O)CNC(=O)CNC(=O)[C@@H]1CCCN1C(=O)CNC(=O)CNC(=O)[C@@H]1CCCN1C(=O)CNC(=O)[C@@H]1CCCN1C(=O)CNC(=O)[C@H](CCCCN)NC(=O)[C@H](CCCNC(=N)N)NC(=O)CNC(=O)[C@H](CCCNC(=N)N)NC(=O)[C@@H](N)CCC(=O)O)C(=O)N[C@@H](C)C(=O)N[C@@H](CCCNC(=N)N)C(=O)NCC(=O)NCC(=O)N[C@@H](C)C(=O)NCC(=O)NCC(=O)NCC(=O)N1CCC[C@H]1C(=O)O [Ng50-75] (H-ERGRKGPGPGGPGGAGVARGGAGGGP-OH) | smaller decrease width due to decomposition than the other Ng peptides
2 | CC[C@H](C)[C@H](NC(=O)[C@@H](N)CCCCN)C(=O)N[C@@H](CCCCN)C(=O)N[C@@H](CO)C(=O)NCC(=O)N[C@@H](CCC(=O)O)C(=O)N[C@@H](CCCNC(=N)N)C(=O)NCC(=O)N[C@@H](CCCNC(=N)N)C(=O)N[C@@H](CCCCN)C(=O)NCC(=O)N1CCC[C@H]1C(=O)NCC(=O)N1CCC[C@H]1C(=O)NCC(=O)NCC(=O)N1CCC[C@H]1C(=O)NCC(=O)NCC(=O)N[C@@H](C)C(=O)NCC(=O)N[C@H](C(=O)N[C@@H](C)C(=O)N[C@@H](CCCNC(=N)N)C(=O)NCC(=O)NCC(=O)N[C@@H](C)C(=O)NCC(=O)NCC(=O)NCC(=O)N1CCC[C@H]1C(=O)O)C(C)C [Ng45-75] (H-KIKSGERGRKGPGPGGPGGAGVARGGAGGGP-OH) | smaller decrease width due to decomposition than the other Ng peptides
